Data: patent US20090075916A1, “Use of Macrolide Derivatives for Treating Acne” (priority 2005, published 2009)
In brackets after ≈: the same amount, converted by molar mass.

Assays:
Assay in all cases: MIC, agar dilution (NCCLS M11-A5), anaerobic
[1] = tested on: resistant P. acnes (NDDR I and II) isolates; assay type: cell-based, Propionibacterium acnes; conditions: Cutibacterium acnes
[2] = tested on: sensitive P. acnes isolates (Propionibacterium acnes 6523, ATCC 6919, clinical isolate, I and II); assay type: cell-based; conditions: Cutibacterium acnes, sensitive P. acnes isolates: 6523, ATCC 6919, clinical isolate, 48 hours anaerobic
All the P. acnes isolate = assay type: cell-based, Propionibacterium acnes

MIC [1] [µg/mL]	MIC [2] [µg/mL]	Structure (SMILES)	susceptibility of P. acnes isolates (in words) (All the P. acnes isolate)
2 (≈ 2.46 µM)		CC[C@H]1OC(=O)[C@H](C)C(=O)[C@H](C)[C@@H](O[C@@H]2O[C@H](C)C[C@H](N(C)C)[C@H]2O)[C@](C)(OC)C[C@@H](C)C(=O)[C@H](C)[C@H]2N(CCCCn3cnc(-c4cccnc4)c3)C(=O)O[C@]12C [Telithromycin]	
16 (≈ 37.6 µM)	0.25 (≈ 0.588 µM)	CCC[C@@H]1C[C@@H](C(=O)N[C@@H]([C@H]2O[C@H](SC)[C@H](O)[C@@H](O)[C@H]2O)[C@H](C)Cl)N(C)C1 [Clindamycin]	
> 16	0.06 to 0.5 (≈ 0.0801 to 0.668 µM)	CC[C@H]1OC(=O)[C@H](C)[C@@H](O[C@H]2C[C@@](C)(OC)[C@@H](O)[C@H](C)O2)[C@H](C)[C@@H](O[C@@H]2O[C@H](C)C[C@H](N(C)C)[C@H]2O)[C@](C)(O)C[C@@H](C)CN(C)[C@H](C)[C@@H](O)[C@]1(C)O [Azithromycin]	
> 16	0.06 to 0.5 (≈ 0.0802 to 0.668 µM)	CC[C@H]1OC(=O)[C@H](C)[C@@H](O[C@H]2C[C@@](C)(OC)[C@@H](O)[C@H](C)O2)[C@H](C)[C@@H](O[C@@H]2O[C@H](C)C[C@H](N(C)C)[C@H]2O)[C@](C)(OC)C[C@@H](C)C(=O)[C@H](C)[C@@H](O)[C@]1(C)O [Clarithromycin]	
> 16	0.06 to 0.5 (≈ 0.0818 to 0.681 µM)	CC[C@H]1OC(=O)[C@H](C)[C@@H](O[C@H]2C[C@@](C)(OC)[C@@H](O)[C@H](C)O2)[C@H](C)[C@@H](O[C@@H]2O[C@H](C)C[C@H](N(C)C)[C@H]2O)[C@](C)(O)C[C@@H](C)C(=O)[C@H](C)[C@@H](O)[C@]1(C)O [Erythromycin]	
		Cc1ncc([N+](=O)[O-])n1CCO [metronidazole]	resistance
